# According to article PMC8509428, “The Phenoxyalkyltriazine Antagonists for 5-HT6 Receptor with Promising Procognitive and Pharmacokinetic Properties In Vivo in Search for a Novel Therapeutic Approach to Dementia Diseases” (International Journal of Molecular Sciences, 2021):
# Several values for one entry are separate records, joined by “and”; a condition that tells them apart may be missing. Equal entries are not always repeated. Structures can show the parent of a compound that is named as a salt. Where two headings read alike, the source gives them in different places.
# Columns and labels:
# [1] = tested on: MK-801-induced memory deficits in rats; test: Novel object recognition (NOR) test, MK-801-induced memory impairment; format: in vivo, rat; settings: MK-801 0.1 mg/kg i.p. + vehicle; 0.1 mg/kg
# Description: Five days before the experiment, the rats were transferred to the laboratory, labelled and, thereafter, left to acclimate to the new environment. The animals were handling every five days before experiments to minimize the stress reaction. The protocol was adapted from the original work. The test session comprising of two trials separated by an inter-trial interval (ITI) of 1 h was carried out after 2 days of the training session. During the first trial (familiarization, T1) two identical objects (A1 and A2) were presented in the opposite corners of the open field, approximately 10 cm from the walls. During the second trial (recognition, T2) one of the A objects was replaced by a novel object B, so that the animals were presented with the A = familiar and B = novel objects. Both trials lasted for 3 min and the animals were returned to their home cages after T1.
# The objects used were the metal Coca-Cola cans and the glass jars filled with sand. […] The sequence of presentations and the location of the objects were randomly assigned to each rat. After each measurement, the floor was cleaned and dried.
# The animals explored the objects by looking, licking, sniffing or touching the object but not when leaning against, standing or sitting on the object. Any rat exploring the two objects for less than 5 s within 3 min of T1 or T2 was eliminated from the study. The exploration time of the objects was measured by a blind experimenter. Based on the exploration time (E) of two objects during T2, the discrimination index (DI) was calculated according to the formula: DI = (EB − EA)/(EA + […]). Using this metric, scores approaching zero reflects no preference while positive values reflect a preference for the novel object and negative numbers reflect a preference for the familiar.
# MK-801, used to attenuate learning, was administered at the dose of 0.1 mg/kg (i.p.) 30 min before the familiarization phase (T1), while investigated compounds were given 60 min before T1 session. In such scheme of experiment we could observe the impact of investigated compounds on the one type of rats’ memory—episodic memory and one phase of memory process—[…].
# The total exploration time in T2 was used to express the influence of the treatment on the exploratory activity of the animals.
# [2] = tested on: MK-801-induced memory deficits in rats; settings: cited from earlier work
# rats [3] = settings: i.p.; ref 10 (AG-1), 11 (AG-2), 12 (AN-1), 13 (AN-2); cited from earlier work
# 5-HT6R = settings: Figure 1; ref 10 (AG-1), 11 (AG-2), 12 (AN-1), 13 (AN-2); cited from earlier work
# 5-HT1AR = target: T1, 5-HT1AR (Homo sapiens, UniProt P08908); test: Radioligand binding assay (RBA), 5-HT1AR; settings: ± SD; displacement of [3H]-8-OHDPAT, HEK-293 cells; read-out: Ki 5-HT1A (converted)
# T1 construct: expressed in transfected cells; host or cells: HEK-293
# T1 sequence (P08908 1-422): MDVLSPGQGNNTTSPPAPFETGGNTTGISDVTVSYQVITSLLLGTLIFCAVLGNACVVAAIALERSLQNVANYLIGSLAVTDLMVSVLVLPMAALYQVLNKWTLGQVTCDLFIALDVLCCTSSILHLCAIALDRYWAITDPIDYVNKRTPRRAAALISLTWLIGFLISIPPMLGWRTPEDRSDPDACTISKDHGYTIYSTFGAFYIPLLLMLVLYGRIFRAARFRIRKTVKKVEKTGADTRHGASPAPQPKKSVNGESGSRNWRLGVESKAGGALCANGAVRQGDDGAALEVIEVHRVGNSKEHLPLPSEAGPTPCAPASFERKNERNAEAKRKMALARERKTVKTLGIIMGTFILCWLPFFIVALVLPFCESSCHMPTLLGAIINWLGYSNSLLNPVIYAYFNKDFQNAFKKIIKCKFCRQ
# Description: The cells used in the radioligand binding assays receptor 5-HT1A were stably expressed in HEK-293 cells. Transfections were performed with the use of Lipofectamine 2000. The binding procedure was accomplished via the displacement of 2.5 nM [^3H]-8-OHDPAT (135.2 Ci/mmol) for 5-HT1AR. Each compound was tested in triplicate in seven to eight different concentrations (10^−11 to 10^−4 M). The inhibition constants (Ki) were calculated using the Cheng–Prusoff equation [45] and the results are expressed as the mean of at least two independent experiments.
# 5-HT2A receptor = target: T2, 5-HT2A receptor (Homo sapiens, UniProt P28223); test: Functional assay for 5-HT2A receptor (aequorin, CHO-K1 cells); format: cell-based
# T2 construct: expressed in transfected cells; host or cells: CHO-K1
# [4] = Bi-directional Caco-2 permeability assay; format: in vitro ADME; settings: human, pH 7.4, Caco-2, 10 µM, triplicate
# CYP3A4 = target: T3, CYP3A4 (Homo sapiens, UniProt P08684); test: CYP3A4 P450-Glo assay; format: in vitro ADME; settings: 10 μM of compound
# T3 construct: purchased Promega
# Description: The luminescent CYP3A4 P450-Glo™ Promega® (Madison, WI, USA) was used for the investigation of potential drug-drug interactions. All assays and protocols were described before. The compounds were tested in triplicate at the final concentrations in the range from 0.01 to 25 μM. The luminescent signal was measured by using a microplate reader EnSpire PerkinElmer (Waltham, MA, USA).
# [5] = tested on: Salmonella Typhimurium TA100; format: cell-based
# rats [6] = test: Forced swim test (FST); format: in vivo, rat; settings: for Immobility Time: 60 min before test, mean ± SEM
# Description: The experiment was carried out according to the method of [54]. On the first day of the experiment, the animals were gently individually placed in Plexiglas cylinders (40 cm high, 18 cm in diameter) containing 15 cm of water maintained at 23–25 °C for 15 min. On removal from water, the rats were placed for 30 min in a Plexiglas box under 60-W bulb to dry. On the following day (24 h later), the rats were replaced in the cylinder and the total duration of immobility was recorded during the whole 5-min test period. The immobility was assigned when no additional activity was observed other than that necessary to keep the rat’s head above the water. Fresh water was used for each animal.
# rats [7] = test: Elevated plus-maze (EPM) test; format: in vivo, rat; settings: for Open Arms % of entries / Open Arms % of time / Open Arms Distance / Open Arms Entries / Open Arms Time: mean ± SEM
# Source text: The testing procedure was based on a method described by. Plus-maze apparatus (an automated device produced by Campden Instruments Ltd. (Leicestershire, UK) made of durable, high density, non-porous black plastic, elevated to a height of 50 cm, consisted of two open arms (50 × 10 cm) and two closed arms (50 × 10 cm, and 30 cm high walls), arranged so that the two arms of each type were opposite each other. The floor of the plus-maze was made of infrared transparent material what means that there are no visible sensors. Plus-maze apparatus was connected to PC software by control chassis. The experiments were conducted in a darkened room, only the center of the maze was illuminated with low-intensity light (30 lux measured on the maze level). Each rat was gently placed in the center of the plus-maze, facing one of the closed arms, immediately after a 5-min adaptation period in a plastic black box (60 × 60 × 35 cm), to increase the overall activity in the EPM. During a 5-min test period, automated Motor Monitor System recorded the number of entries into the closed and open arms and the time spent in either type of arms. The device counted an effective arm-entry when the four paws of a rat were into any arm. The maze was thoroughly cleaned after each trial. The EPM test is an “unconditional” anxiety-like test based on rodents’ natural aversion to heights and open space.
# rats [8] = test: Exploratory activity measured in the EPM test; format: in vivo, rat; settings: for Total Distance / X Ambulation / Y Ambulation: mean ± SEM
# Description: The experiment was performed using an EPM apparatus (details see above). Total ambulation (the total distance covered by a rat, and ambulation along X and Y axis) was taken to discern drug effects on general activity from those on open-arm exploration, during a 5-min test period (i.e., the time equal to the observation period in the EPM test). Rats’ behavior was not videotaped during the test.
# human 5-HT6R = settings: ± SD; read-out: Ki 5-HT6 (converted); cited from earlier work
# dopaminergic receptor D2 = settings: ± SD; cited from earlier work
# 5-HT7R = settings: ± SD; read-out: Ki 5-HT7 (converted); cited from earlier work
# [9] = cited from earlier work
# hepatoma HepG2 cell line = settings: 50 µM; cited from earlier work
# [10] = target: T4, human serotonin 5-HT6 receptor (Homo sapiens, UniProt P50406); set-up: host or cells: 1321N1; settings: cited from earlier work
# [11] = target: T4, human serotonin 5-HT6 receptor; test: Functional assay for 5-HT6 receptor (cAMP, 1321N1 cells)
# T4 sequence (P50406 whole entry): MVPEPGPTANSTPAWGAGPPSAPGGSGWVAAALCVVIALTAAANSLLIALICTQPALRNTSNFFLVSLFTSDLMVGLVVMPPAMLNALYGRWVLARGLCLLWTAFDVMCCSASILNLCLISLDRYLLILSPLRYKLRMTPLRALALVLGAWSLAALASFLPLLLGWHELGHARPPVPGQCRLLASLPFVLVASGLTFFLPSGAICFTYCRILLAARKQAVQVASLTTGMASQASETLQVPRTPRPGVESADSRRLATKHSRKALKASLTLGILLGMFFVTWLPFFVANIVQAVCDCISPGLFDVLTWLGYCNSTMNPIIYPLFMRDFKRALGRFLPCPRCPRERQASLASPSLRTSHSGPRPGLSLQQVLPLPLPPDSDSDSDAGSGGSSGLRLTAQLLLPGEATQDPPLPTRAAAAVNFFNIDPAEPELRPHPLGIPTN
# T2 sequence (P28223 whole entry): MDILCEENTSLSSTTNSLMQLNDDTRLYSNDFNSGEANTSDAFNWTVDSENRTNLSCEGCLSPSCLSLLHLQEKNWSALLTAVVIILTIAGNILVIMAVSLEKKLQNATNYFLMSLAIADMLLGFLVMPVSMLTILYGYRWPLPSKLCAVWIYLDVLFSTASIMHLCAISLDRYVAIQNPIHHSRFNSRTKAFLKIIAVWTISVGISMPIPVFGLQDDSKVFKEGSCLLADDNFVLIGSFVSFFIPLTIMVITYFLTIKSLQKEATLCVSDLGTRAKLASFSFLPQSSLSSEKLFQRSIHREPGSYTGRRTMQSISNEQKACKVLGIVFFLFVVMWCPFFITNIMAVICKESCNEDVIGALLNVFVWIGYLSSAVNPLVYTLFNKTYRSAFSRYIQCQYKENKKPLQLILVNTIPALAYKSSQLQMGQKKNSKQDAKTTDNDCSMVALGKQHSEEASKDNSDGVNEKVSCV
# T3 sequence (P08684 whole entry): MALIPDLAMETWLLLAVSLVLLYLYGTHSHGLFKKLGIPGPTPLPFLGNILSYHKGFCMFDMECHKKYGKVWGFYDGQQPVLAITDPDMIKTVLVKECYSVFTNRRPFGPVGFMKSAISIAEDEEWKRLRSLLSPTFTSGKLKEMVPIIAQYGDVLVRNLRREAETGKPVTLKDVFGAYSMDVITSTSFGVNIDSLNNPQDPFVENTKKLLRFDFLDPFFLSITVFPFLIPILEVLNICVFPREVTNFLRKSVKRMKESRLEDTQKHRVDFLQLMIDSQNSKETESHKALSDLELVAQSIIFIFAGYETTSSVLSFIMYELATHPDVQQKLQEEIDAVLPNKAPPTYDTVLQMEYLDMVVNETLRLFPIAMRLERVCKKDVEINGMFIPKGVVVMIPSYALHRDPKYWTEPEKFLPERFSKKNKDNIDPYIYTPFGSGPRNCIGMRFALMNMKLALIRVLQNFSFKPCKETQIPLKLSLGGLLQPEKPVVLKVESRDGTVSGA
compound,measurement,setting,value
"C[C@]12N[C@H](Cc3ccccc31)c1ccccc12 [MK-801, MK-801 maleate, reference compound]",Total Exploratory Time in T2 Session,[1],42.00 ± 3.13 s and 47.07 ± 3.89 s
same,Discrimination Index,[2]; MK-801 0.1 mg/kg i.p. + vehicle,−0.07 ± 0.01
CN(C)CCc1c[nH]c2ccc(NS(=O)(=O)c3c(Cl)nc4sccn34)cc12 [AG-1],dose with procognitive effect in the NOR test,rats [3],2.5 mg/kg
NCCc1cn(S(=O)(=O)c2c(Cl)nc3sccn23)c2ccccc12 [AG-2],dose with procognitive effect in the NOR test,rats [3],3 mg/kg
COc1ccc2c(c1)c(C1=CCNCC1)cn2S(=O)(=O)c1cncc2ccccc12 [AN-1],Ki,5-HT6R,3 nM
same,dose with procognitive effect in the NOR test,rats [3],1 mg/kg
"CCC(Oc1cc(Cl)ccc1Cl)c1nc(N)nc(N2CCN(C)CC2)n1 (racemic) [Compound 1, (RS)-4-[1-(2,5-dichlorophenoxy)propyl]-6-(4-methylpiperazin-1-yl)-1,3,5-triazin-2-amine]",Ki,5-HT1AR,4760 ± 1190 nM
same,Emax,"5-HT2A receptor; Table S2, read-out: 5-HT2A Antagonist mode Emax",0%
same,Emax,5-HT2A receptor; read-out: 5-HT2AR Agonist Mode Emax,58 ± 9.7%
same,"Papp A→B at 2 h, 10 µM",[4],14.2 ± 0.36 ×10⁻⁶ cm/s
same,"Papp B→A at 2 h, 10 µM",[4],22.2 ± 1.92 ×10⁻⁶ cm/s
same,CYP3A4 activity remaining,CYP3A4,44%
same,Binomial B-Value,[5]; 1 µM,0.0707
same,Number of Revertants ± SD,[5]; 1 µM,2.00 ± 1.00
same,Binomial B-Value,[5]; 10 µM,0.0707
same,Number of Revertants ± SD,[5]; 10 µM,2.00 ± 1.00
same,Immobility Time,rats [6]; 1 mg/kg i.p.,241.80 ± 18.7 s
same,decrease of immobility time vs vehicle-treated group,rats [6]; 3 mg/kg,about 30%
same,Immobility Time,rats [6]; 3 mg/kg i.p.,175.29 ± 18.1 s
same,decrease of immobility time vs vehicle-treated group,rats [6]; 10 mg/kg,about 36%
same,Immobility Time,rats [6]; 10 mg/kg i.p.,163.63 ± 11.2 s
same,Open Arms % of entries,rats [7]; 1 mg/kg i.p.,32.59 ± 4.23%
same,Open Arms % of time,rats [7]; 1 mg/kg i.p.,25.76 ± 6.11%
same,Open Arms Distance,rats [7]; 1 mg/kg i.p.,788 ± 175 cm
same,Open Arms Entries,rats [7]; 1 mg/kg i.p.,9.88 ± 1.99
same,Open Arms Time,rats [7]; 1 mg/kg i.p.,58.90 ± 14.20 s
same,Open Arms % of entries,rats [7]; 3 mg/kg i.p.,29.49 ± 3.48%
same,Open Arms % of time,rats [7]; 3 mg/kg i.p.,10.27 ± 2.05%
same,Open Arms Distance,rats [7]; 3 mg/kg i.p.,307 ± 78 cm
same,Open Arms Entries,rats [7]; 3 mg/kg i.p.,6.14 ± 0.77
same,Open Arms Time,rats [7]; 3 mg/kg i.p.,24.81 ± 5.24 s
same,Open Arms % of entries,rats [7]; 10 mg/kg i.p.,42.23 ± 9.09%
same,Open Arms % of time,rats [7]; 10 mg/kg i.p.,18.34 ± 4.19%
same,Open Arms Distance,rats [7]; 10 mg/kg i.p.,538 ± 104 cm
same,Open Arms Entries,rats [7]; 10 mg/kg i.p.,7.20 ± 1.66
same,Open Arms Time,rats [7]; 10 mg/kg i.p.,43.36 ± 9.08 s
same,anxiolytic-like activity in EPM test,"rats [7]; i.p., 60 min before test",did not show anxiolytic-like activity
same,Total Distance,rats [8]; 1 mg/kg i.p.,4520 ± 168 cm
same,X Ambulation,rats [8]; 1 mg/kg i.p.,172 ± 6
same,Y Ambulation,rats [8]; 1 mg/kg i.p.,99 ± 6
same,Total Distance,rats [8]; 3 mg/kg i.p.,3995 ± 218 cm
same,X Ambulation,rats [8]; 3 mg/kg i.p.,146 ± 10
same,Y Ambulation,rats [8]; 3 mg/kg i.p.,82 ± 7
same,decrease of total distance,rats [8]; 10 mg/kg i.p.,20%
same,Total Distance,rats [8]; 10 mg/kg i.p.,"3681 ± 256; p < 0.05 F(3,24) = 4.5291; p < 0.05 cm"
same,X Ambulation,rats [8]; 10 mg/kg i.p.,"140 ± 11 F(3,24) = 3.8035; p < 0.05"
same,Y Ambulation,rats [8]; 10 mg/kg i.p.,"83 ± 8 F(3,24) = 1.9215; NS"
same,Ki,human 5-HT6R,6 ± 1 nM
same,Ki,dopaminergic receptor D2,320 ± 19 nM
same,Ki,5-HT7R,5710 ± 967 nM
same,number of metabolites formed,"[9]; RLMs, 120 min",six
same,parent biotransformed,"[9]; RLMs, 120 min",more than 90%
same,parent remaining (metabolic stability),"[9]; compound 1, RLMs",< 10%
same,"hepatotoxic effect, HepG2",hepatoma HepG2 cell line,weak hepatotoxic effect
same,effective dose in NOR test,[2]; i.p.,3 mg/kg
same,5-HT6 Antagonist Mode Emax,"[10]; Table S1, compound 1",98%
same,5-HT6R Agonist Mode Emax,"[10]; compound 1, previous functional assays",4.00 ± 0.00%
COc1ccc(NS(=O)(=O)c2ccc(I)cc2)cc1N1CCN(C)CC1 [SB258585],5-HT6 Antagonist Mode Emax,"[11]; Table S1, % of reference antagonist (SB258585 10^-5 M)",100%
same,5-HT6R Agonist Mode Emax,"[11]; ± SEM, % of maximal agonist response (Serotonin 10^−5 M)",2.00 ± 0.50%
CN(C)CCn1cnc2ccc(NS(=O)(=O)c3ccc4c(Cl)cccc4c3)cc21 [AN-2],Ki,5-HT6R,9 nM
same,dose with procognitive effect in the NOR test,rats [3],1 mg/kg
